Our source for the IC50 values is US20190151312A1, “HEPARAN SULFATE BIOSYNTHESIS INHIBITORS FOR THE TREATMENT OF DISEASES” (BioMarin Pharmaceutical Inc., priority 2014, published 2019).

One experiment concerns GM01896 cells (MPS II dermal fibroblasts). The experiment is described as follows: Assay 1: MPS cellular assay, MPS II (heparan sulfate disaccharide biomarkers by LC-MS). The experiment is classed as cell-based, human. The following applies: Assay 1 for MPS II, heparan sulfate disaccharide biomarkers (I2a4, I2a6, I2S0 and/or I2S6), read-out: IC50 Range. On the procedure: Dermal fibroblasts from humans with an MPS disorder and from healthy donors are grown. Cells are expanded and kept in culture for analysis. Human foreskin fibroblasts can be obtained from the American Type Culture Collection (CRL-1634). Human dermal fibroblasts derived from biopsies of individuals are purchased from Coriell Institute: clinically healthy individuals, GM00408, GM00409, GM00200 (clinically unaffected sibling of an individual with metachromatic leukodystrophy), GM05659, GM08398, and GM15871 (clinically unaffected sibling of an individual with unclassified Ehlers-Danlos syndrome); heterozygous MPS I carriers, GM01392, GM01393 and GM0003; homozygous individuals affected with MPS I, GM06214, GM11495, GM00034, GM01391 and GM01256; individuals with MPS II, GM01896, GM03181, GM00615 and GM00298; individuals with MPS IIIA, GM00879, GM00643, GM00934, GM06110 and GM00629; MPS IIIB, GM01426; MPS IIIC, GM05157; MPS IIID, GM05093; and MPS VII, GM00121. All cells are grown in DMEM containing 50 U ml-1 penicillin, […] ml-1 streptomycin, 2 mM glutamine and 10% FBS. Cells are seeded on 15-cm-diameter tissue culture dishes, grown to confluence and maintained in culture for analysis. Sulfamidase activity in cell extracts is measured with 4-methylumbelliferyl-α-D-N-sulfoglucosaminide according the vendors instructions substituting Tris-acetate buffer (pH 6.5; Moscerdam).
Cells are treated with a compound of the invention at a concentration at or below 30 μM for 4 to 21 days. Cell monolayers are washed with phosphate buffered saline and detached by treatment with GIBCO trypsin-EDTA solution (Invitrogen). After centrifugation, the supernatant is removed and the cells are lysed in 0.5 mL of 0.1 N sodium hydroxide. The amount of protein is determined by bicinchoninic acid (BCA assay, Thermo Scientific). GAGs are isolated by anion exchange chromatography and digested with glycosaminoglycan lyases (heparinases I, II, and III, IBEX).
Enzymatically depolymerized GAG preparations are differentially mass labeled by reductive amination with [^12C6]aniline. Briefly, heparan sulfate disaccharides (1-10 pmol) are dried down in a centrifugal evaporator and reacted with [^12C6]aniline or [^13C6]aniline (15 μL, 165 μmol) and 15 μL of 1 M NaCNBH3 (Sigma-Aldrich) freshly prepared in dimethylsulfoxide/acetic acid (7:3, v/v) is added to each sample. Reactions are carried out at 37° C. for 16 h and then dried in a centrifugal evaporator. Unsubstituted amines are reacted with propionic anhydride (Sigma-Aldrich). Dried samples are reconstituted in 20 μL of 50% methanol, and 3 μL of propionic anhydride (Sigma-Aldrich, 23.3 μmol) is added. Reactions are carried out at ˜23° C. for 2 h. Acylated disaccharides are subsequently aniline tagged as described above. Each sample is mixed with commercially available standard unsaturated disaccharides (Seikagaku), standard N-sulfoglucosamine, glucosamine-6-sulfate, N-acetylgalactosamine-4-sulfate and N-acetylgalactosamine-6-sulfate (Sigma-Aldrich), and/or synthesized α-L-idopyranosyluronate-(1,4)-2-N-acetyl-2-deoxy-α/β-D-glucopyranoside (I0S0). All standards are tagged with [^13C6]aniline (Sigma-Aldrich). Samples are then analyzed by LC-MS using an LTQ Orbitrap Discovery electrospray ionization mass spectrometer (Thermo Scientific) equipped with quaternary HPLC pump (Finnigan Surveyor MS pump) and a reverse-phase capillary column as described in J. Biol. Chem. 2008, 283(48), 33674.
MPS II: Assay 1, as described above, was used to determine activity for MPS II using GM01896 cells. […] Extracted ion chromatograms were obtained. Cell viability was monitored using alamar blue or ATP quantification. IC50's were calculated using curve fitting within the ChemInnovation CBIS database system.
One may read the IC50 as the concentration needed to halve the response being measured. `Cn1c(=O)n(C)c2cc(-c3cc(Nc4ccc(Cl)cc4)nc(N4CCOCC4)n3)ccc21` [5-{6-[(4-chlorophenyl)amino]-2-morpholin-4-ylpyrimidin-4-yl}-1,3-dimethyl-3-hydrobenzimidazol-2-one]: the IC50 is under 500 nM.
For `Cn1c(=O)n(CCN2CCOCC2)c2ccc(-c3cc(Nc4ccc(Cl)cc4)nc(N4CCOCC4)n3)cc21` [5-{6-[(4-chlorophenyl)amino]-2-morpholin-4-ylpyrimidin-4-yl}-3-methyl-1-(2-morpholin-4-ylethyl)-3-hydrobenzimidazol-2-one], the IC50 is 500 to 1000 nM.
Still for that read-out and setting: the same measure for `Cn1c(=O)[nH]c2ccc(-c3cc(Nc4ccc(Cl)cc4)nc(N4CCOCC4)n3)cc21` [6-{6-[(4-chlorophenyl)amino]-2-morpholin-4-ylpyrimidin-4-yl}-1-methyl-3-hydrobenzimidazol-2-one]: under 500 nM.

The experiment is the same for the next values; noted with them: Homo sapiens, Fibroblast, Assay 1 for MPS II, heparan sulfate disaccharide biomarkers (I2a4, I2a6, I2S0 and/or I2S6), read-out: IC50 Range.
As for `CC(=O)c1ccc(Nc2cc(-c3ccc4cnn(C)c4c3)nc(N3CCOCC3)n2)cc1` [1-acetyl-4-{[6-(1-methyl(1H-indazol-6-yl))-2-morpholin-4-ylpyrimidin-4-yl]amino}benzene], the IC50 lay in the range of 500 to 1000 nM.
The same measure, in the same setting: as for `Cn1ncc2ccc(-c3cc(Nc4ccc([S+](C)[O-])cc4)nc(N4CCOCC4)n3)cc21` (stereo not drawn) [1-{[6-(1-methyl(1H-indazol-6-yl))-2-morpholin-4-ylpyrimidin-4-yl]amino}-4-(methylsulfinyl)benzene], the figure is 1000 to 5000 nM; as for `Cn1ncc2ccc(-c3cc(Nc4ccc(S(C)(=O)=O)cc4)nc(N4CCOCC4)n3)cc21` [1-{[6-(1-methyl(1H-indazol-6-yl))-2-morpholin-4-ylpyrimidin-4-yl]amino}-4-(methylsulfonyl)benzene], 1000 to 5000 nM; as for `Cc1nn(C)c2cc(-c3cc(Nc4ccc5[nH]ncc5c4)nc(N4CCOCC4)n3)ccc12` [1H-indazol-5-yl[6-(1,3-dimethyl(1H-indazol-6-yl))-2-morpholin-4-ylpyrimidin-4-yl]amine], 1000 to 5000 nM.
Turning to `Cn1ncc2ccc(-c3cc(Nc4ccc5[nH]ncc5c4)nc(N4CCOCC4)n3)cc21` [1H-indazol-5-yl[6-(1-methyl(1H-indazol-6-yl))-2-morpholin-4-ylpyrimidin-4-yl]amine], the IC50 lay in the range of 1000 to 5000 nM.
Same read-out and setting: as for `Cc1nn(C)c2cc(-c3cc(Nc4ccc5cn[nH]c5c4)nc(N4CCOCC4)n3)ccc12` [1H-indazol-6-yl[6-(1,3-dimethyl(1H-indazol-6-yl))-2-morpholin-4-ylpyrimidin-4-yl]amine], the figure is 1000 to 5000 nM; as for `Cn1ncc2ccc(-c3cc(Nc4ccc5cn[nH]c5c4)nc(N4CCOCC4)n3)cc21` [1H-indazol-6-yl[6-(1-methyl(1H-indazol-6-yl))-2-morpholin-4-ylpyrimidin-4-yl]amine], 1000 to 5000 nM.
Still for that read-out and setting: the same measure for `Cn1nc(CCN2CCOCC2)c2ccc(-c3cc(Nc4ccc5cn[nH]c5c4)nc(N4CCOCC4)n3)cc21` [1H-indazol-6-yl{6-[1-methyl-3-(2-morpholin-4-ylethyl)(1H-indazol-6-yl)]-2-morpholin-4-ylpyrimidin-4-yl}amine]: 500 to 1000 nM; for `Cn1ccc2ccc(Nc3cc(-c4ccc5c(CCN6C(=O)c7ccccc7C6=O)nn(C)c5c4)nc(N4CCOCC4)n3)cc21` [2-[2-(1-methyl-6-{6-[(1-methylindol-6-yl)amino]-2-morpholin-4-ylpyrimidin-4-yl}-1H-indazol-3-yl)ethyl]benzo[c]azoline-1,3-dione]: 500 to 1000 nM.
Same read-out and setting: as for `Cn1ccc2ccc(Nc3cc(-c4ccc5c(CCCN6C(=O)c7ccccc7C6=O)nn(C)c5c4)nc(N4CCOCC4)n3)cc21` [2-[3-(1-methyl-6-{6-[(1-methylindol-6-yl)amino]-2-morpholin-4-ylpyrimidin-4-yl}-1H-indazol-3-yl)propyl]benzo[c]azoline-1,3-dione], the figure is under 500 nM; as for `Cn1nc(CCCO)c2ccc(-c3cc(Nc4ccc(Cl)cc4)nc(N4CCOCC4)n3)cc21` [3-(6-{6-[(4-chlorophenyl)amino]-2-morpholin-4-ylpyrimidin-4-yl}-1-methyl-1H-indazol-3-yl)propan-1-ol], 500 to 1000 nM.
As for `Cn1ncc2ccc(-c3cc(Nc4ccc(N5CN=NC5=O)cc4)nc(N4CCOCC4)n3)cc21` [4-(4-{[6-(1-methyl(1H-indazol-6-yl))-2-morpholin-4-ylpyrimidin-4-yl]amino}phenyl)-1,2,4-triazolin-5-one], the IC50 lay in the range of 1000 to 5000 nM.
For `Cn1nc(CCCCO)c2ccc(-c3cc(Nc4ccc(Cl)cc4)nc(N4CCOCC4)n3)cc21` [4-(6-{6-[(4-chlorophenyl)amino]-2-morpholin-4-ylpyrimidin-4-yl}-1-methyl-1H-indazol-3-yl)butan-1-ol], the IC50 was in the range of 1000 to 5000 nM.
`CN1NC=C2CC=C(c3cc(Nc4ccc(C(N)=O)cc4)nc(N4CCOCC4)n3)C=C21` [4-((6-(1-methyl-4H-indazol-6-yl)-2-morpholinopyrimidin-4-yl)amino)benzamide]: the IC50 lay in the range of 500 to 1000 nM.
`NC(=O)c1ccc(Nc2cc(-c3ccc4ncn(CCN5CCOCC5)c4c3)nc(N3CCOCC3)n2)cc1` [4-({2-morpholin-4-yl-6-[1-(2-morpholin-4-ylethyl)benzimidazol-6-yl]pyrimidin-4-yl}amino)benzamide]: the IC50 is 1000 to 5000 nM.
The same measure, in the same setting: the same measure for `COCCn1cnc2ccc(-c3cc(Nc4ccc(C(=O)O)cc4)nc(N4CCOCC4)n3)cc21` [4-({6-[1-(2-methoxyethyl)benzimidazol-6-yl]-2-morpholin-4-ylpyrimidin-4-yl}amino)benzoic acid]: 1000 to 5000 nM; for `Cn1nc(CCN2CCOCC2)c2ccc(-c3cc(Nc4ccc(C#N)cc4)nc(N4CCOCC4)n3)cc21` [4-({6-[1-methyl-3-(2-morpholin-4-ylethyl)(1H-indazol-6-yl)]-2-morpholin-4-ylpyrimidin-4-yl}amino)benzenecarbonitrile]: 1000 to 5000 nM; for `Cn1ncc2ccc(-c3cc(Nc4ccc(C#N)cc4)nc(N4CCOCC4)n3)cc21` [4-{[6-(1-methyl(1H-indazol-6-yl))-2-morpholin-4-ylpyrimidin-4-yl]amino}benzenecarbonitrile]: 1000 to 5000 nM.
The same measure, in the same setting: as for `Cn1ncc2ccc(-c3cc(Nc4ccc(S(N)(=O)=O)cc4)nc(N4CCOCC4)n3)cc21` [4-{[6-(1-methyl(1H-indazol-6-yl))-2-morpholin-4-ylpyrimidin-4-yl]amino}benzenesulfonamide], the figure is 1000 to 5000 nM; as for `Cn1cnc2ccc(-c3cc(Nc4ccc(C(N)=O)cc4)nc(N4CCOCC4)n3)cc21` [4-{[6-(1-methylbenzimidazol-6-yl)-2-morpholin-4-ylpyrimidin-4-yl]amino}benzamide], 500 to 1000 nM; as for `Cn1cnc2ccc(-c3cc(Nc4ccc(C#N)cc4)nc(N4CCOCC4)n3)cc21` [4-{[6-(1-methylbenzimidazol-6-yl)-2-morpholin-4-ylpyrimidin-4-yl]amino}benzenecarbonitrile], 1000 to 5000 nM.
The same measure, in the same setting: the same measure for `Cn1cnc2ccc(-c3cc(Nc4ccc(S(N)(=O)=O)cc4)nc(N4CCOCC4)n3)cc21` [4-{[6-(1-methylbenzimidazol-6-yl)-2-morpholin-4-ylpyrimidin-4-yl]amino}benzenesulfonamide]: 1000 to 5000 nM; for `Cn1ncc2ccc(-c3cc(Nc4ccccc4)nc(N4CCOCC4)n3)cc21` [6-(1-methyl-1H-indazol-6-yl)-2-morpholino-N-phenylpyrimidin-4-amine]: 1000 to 5000 nM; for `Clc1ccc(Nc2cc(-c3cccc4[nH]cnc34)nc(N3CCOCC3)n2)cc1` [6-(1H-benzo[d]imidazol-4-yl)-N-(4-chlorophenyl)-2-morpholinopyrimidin-4-amine]: 500 to 1000 nM.
